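Compound exposure: 48 hours, 5 concentrations, 96-well plates. Here, GI50 denotes the concentration required for 50% inhibition of growth.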 Calls of active or inactive are those of the source. Rule as the data show it: active = GI50 up to about 1.1 µM and inactive = higher. Some results are limits rather than exact numbers.

Common to all, as to experiment: NCI anticancer screen, dose series, 48 h
In experiment [1] the test system is CCRF-CEM.
Experiment [2] deals with COLO 205.
Experiment [3] relates to DLD-1.
Experiment [4] has as its system DMS-114.
For experiment [5], the system named is EKVX.
Experiment [6] has as its system HCT-15.
For experiment [7], the system named is HL-60.
The subject of experiment [8] is HOP-62.
Experiment [9] concerns MOLT-4.
The test system of experiment [10] is Malme-3M.
Experiment [11] deals with NCI-H226.
The subject of experiment [12] is OVCAR-3.
For experiment [13], the system named is OVCAR-4.
The subject of experiment [14] is OVCAR-5.
For experiment [15], the system named is SF-268.
Experiment [16] has as its system SF-539.
Experiment [17] has as its system SNB-19.
The test system of experiment [18] is SR.
Experiment [19] concerns UACC-257.
In experiment [20] the test system is DMS-273.

For the compound `O=C(COc1ccccc1)NS(=O)(=O)c1ccccc1`, the GI50 in experiment [1] is > 100 µM (inactive); in experiment [2], > 100 µM (inactive); in [3] it was > 100 µM (inactive); in [4], > 100 µM (inactive); in [5], > 100 µM (inactive); in [6] it was above 100 µM. Besides, the GI50 in experiment [7], in experiment [8], in experiment [9], in experiment [10], in [11] and in [12] was > 100 µM (inactive) throughout. Further, the GI50 in [13], in experiment [14], in experiment [15], in experiment [16], in experiment [17] and in experiment [18] was > 100 µM (inactive) in each case. Further, the GI50 in experiment [19] was > 100 µM (inactive).

In the case of `Cc1c(C(=O)CC(=O)C(=O)Nc2cc(Cl)ccc2Cl)[n+]([O-])c2ccccc2[n+]1[O-]`, the GI50 in experiment [1] is 73.8 µM (inactive); in [2], 31.4 µM (inactive); in experiment [4], 25.9 µM (inactive); in experiment [20], 26.1 µM (inactive); in [5] it was 37.8 µM (inactive); in experiment [6], 29 µM. Further, the GI50 in experiment [8] was > 100 µM (inactive); in experiment [9], 26.6 µM (inactive); in experiment [10] it was 43.6 µM (inactive); in experiment [11] it was > 100 µM (inactive); in experiment [12], 19.9 µM (inactive); in [13], 46.1 µM (inactive). For the same compound, the GI50 in experiment [14] is > 100 µM (inactive); in [15] it was 33.4 µM (inactive); in experiment [16], 47.8 µM (inactive); in experiment [17] it was 45.5 µM (inactive); in experiment [18] it was 28.4 µM (inactive); in experiment [19], 34.8 µM (inactive).

On to `O=C1CSc2cc([N+](=O)[O-])ccc2N1`, for which the GI50 in experiment [1], in experiment [2], in [3], in experiment [4], in experiment [20] and in experiment [5] was > 100 µM (inactive) in each case. For the same compound, the GI50 in experiment [6] is above 100 µM; in [8], > 100 µM (inactive); in experiment [9], > 100 µM (inactive); in [10], > 100 µM (inactive); in experiment [11], > 100 µM (inactive); in experiment [12], > 100 µM (inactive). Moreover, the GI50 in experiment [13], in experiment [14], in experiment [15], in [16], in experiment [17] and in experiment [19] was > 100 µM (inactive) in each case.

Turning to `COC(=O)C12OCC34C(CC5C(C)C6=CC(=O)OC6=CC5(C)C3C(O)C1O)OC(=O)C(O)C24` (configuration not stated), the GI50 was 6.43 µM (inactive) in [2]; 0.859 µM (active) in experiment [4]; 0.178 µM (active) in experiment [20]; 0.716 µM (active) in [5]; 1.48 µM in [6]; 0.314 µM (active) in experiment [7]. Besides, the GI50 in experiment [8] was 0.78 µM (active); in [9] it was 0.153 µM (active); in experiment [10] it was 0.159 µM (active); in experiment [11], 0.293 µM (active); in experiment [12], 0.655 µM (active); in experiment [13], 1.25 µM (inactive). For the same compound, the GI50 is 2.56 µM (inactive) in experiment [14]; 0.504 µM (active) in experiment [15]; 0.103 µM (active) in [16]; 0.0371 µM (active) in [17]; < 0.01 µM (active) in [18]; 1.5 µM (inactive) in experiment [19].

For the compound `N#CC(C(=O)CCC(=O)Nc1ccc(Cl)cc1)c1ccc(Cl)cc1` (configuration not stated), the GI50 was > 100 µM (inactive) in [1]; > 100 µM (inactive) in experiment [2]; 71.3 µM (inactive) in experiment [3]; > 100 µM (inactive) in experiment [4]; > 100 µM (inactive) in experiment [20]; > 100 µM (inactive) in [5]. Further, the GI50 is above 100 µM in [6]; > 100 µM (inactive) in experiment [7]; > 100 µM (inactive) in experiment [8]; > 100 µM (inactive) in experiment [9]; > 100 µM (inactive) in [10]; > 100 µM (inactive) in experiment [11]. The GI50 was > 100 µM (inactive) in experiment [12]; > 100 µM (inactive) in experiment [13]; > 100 µM (inactive) in [14]; 93.3 µM (inactive) in experiment [15]; > 100 µM (inactive) in [16]; > 100 µM (inactive) in experiment [17]. Also, in [19], the GI50 was > 100 µM (inactive).

Turning to `CN(C(=O)C12C3C4C1C1C2C3C41C(=O)C(C)(C)C)C(C)(C)C` (configuration not stated), the GI50 in [1], in experiment [2], in experiment [3], in experiment [4], in experiment [20] and in [5] was > 100 µM (inactive) each time. Moreover, the GI50 in experiment [7] is 63.5 µM (inactive); in [8], > 100 µM (inactive); in experiment [9] it was > 100 µM (inactive); in experiment [10] it was > 100 µM (inactive); in [12], > 100 µM (inactive); in [13], > 100 µM (inactive). Further, the GI50 in experiment [14], in [15], in experiment [16], in experiment [17] and in experiment [19] was > 100 µM (inactive) in each case.

Turning to `COc1cc2cc3c4c(cc(OC)c(OC)c4c2cc1OC)CCN3`, the GI50 in [1] was 26.5 µM (inactive); in [2], 22.6 µM (inactive); in [3], 26.1 µM (inactive); in [4] it was 36 µM (inactive); in experiment [20], 33.7 µM (inactive); in [5], 6.53 µM (inactive). Further, the GI50 in experiment [6] was 32.9 µM; in experiment [7], 18.2 µM (inactive); in experiment [8], > 100 µM (inactive); in [9], 35.3 µM (inactive); in experiment [10], 44.5 µM (inactive); in [11], > 100 µM (inactive). In addition, the GI50 is 27.2 µM (inactive) in experiment [12]; 33.7 µM (inactive) in experiment [13]; 34 µM (inactive) in experiment [15]; 14.6 µM (inactive) in [16]; > 100 µM (inactive) in experiment [17]; 58.6 µM (inactive) in [19].

Turning to `CN(C)C(=S)OC(Cn1cncn1)c1ccc(Cl)cc1Cl` (configuration not stated), the GI50 in [2] was > 100 µM (inactive); in experiment [3], > 100 µM (inactive); in experiment [4], > 100 µM (inactive); in [20], > 100 µM (inactive); in experiment [5] it was > 100 µM (inactive); in experiment [6], above 100 µM. Moreover, the GI50 in [7], in [8], in experiment [9], in experiment [10], in [11] and in experiment [12] was > 100 µM (inactive) throughout. Besides, the GI50 in experiment [13], in experiment [14], in experiment [15], in experiment [16], in [17] and in experiment [19] was > 100 µM (inactive) throughout.

For `CC#CC(=O)Nc1ccccc1CC(c1c[nH]c2ccccc12)c1c[nH]c2ccccc12`, the GI50 was 11.3 µM (inactive) in [1]; 15.5 µM (inactive) in experiment [2]; 16.6 µM (inactive) in experiment [3]; 14.4 µM (inactive) in experiment [4]; 16.2 µM (inactive) in experiment [20]; 14.6 µM (inactive) in [5]. Moreover, the GI50 is 14.3 µM in [6]; 10.8 µM (inactive) in experiment [7]; 20 µM (inactive) in experiment [8]; 5.68 µM (inactive) in [9]; 16.6 µM (inactive) in experiment [10]; 15.5 µM (inactive) in experiment [11]. In addition, the GI50 in experiment [12] was 18.9 µM (inactive); in experiment [15], 22.7 µM (inactive); in [16], 20.4 µM (inactive); in experiment [17] it was 18.5 µM (inactive); in experiment [19] it was 21.5 µM (inactive).

Take `O=C(O)C[C@@H](Cl)[C@H](NC(=O)OCc1ccccc1)C(=O)O`: the GI50 in experiment [1], in experiment [2], in experiment [3], in [4], in experiment [20] and in experiment [5] was > 100 µM (inactive) each time. In addition, the GI50 in experiment [6] was above 100 µM; in experiment [7], > 100 µM (inactive); in [8], > 100 µM (inactive); in experiment [9], > 100 µM (inactive); in [10], > 100 µM (inactive); in [11] it was > 100 µM (inactive). Besides, the GI50 in experiment [12], in [13], in [14], in experiment [15], in experiment [16] and in experiment [17] was > 100 µM (inactive) in each case. For the same compound, the GI50 in experiment [19] is > 100 µM (inactive).

Turning to `O=S(O)CCCCSSCCCCS(=O)(=O)S`, the GI50 is 13.8 µM (inactive) in experiment [1]; 48.5 µM (inactive) in [2]; > 100 µM (inactive) in [3]; 39.4 µM (inactive) in experiment [4]; 50.9 µM (inactive) in experiment [20]; 19.4 µM (inactive) in experiment [5]. The GI50 in experiment [6] was 59 µM; in experiment [8] it was > 100 µM (inactive); in experiment [9] it was 2 µM (inactive); in experiment [10], 17.6 µM (inactive); in experiment [12], 49.2 µM (inactive); in experiment [13] it was 25.5 µM (inactive). Besides, the GI50 is > 100 µM (inactive) in experiment [14]; 35.6 µM (inactive) in experiment [15]; 98.6 µM (inactive) in experiment [16]; > 100 µM (inactive) in experiment [17]; 21.1 µM (inactive) in [19].

With `COc1ccc2cc3[n+](cc2c1OC)CCc1cc2c(cc1-3)OCO2` [BERBERINE CHLORIDE], the GI50 in experiment [1] was 13.2 µM (inactive); in experiment [4], 4.23 µM (inactive); in experiment [20] it was 10.3 µM (inactive); in [7], 13.6 µM (inactive); in [10], 6.68 µM (inactive); in experiment [14], 58.3 µM (inactive). Besides, the GI50 in [15] was 5.2 µM (inactive); in [16], 35.3 µM (inactive); in [17], 8.38 µM (inactive).

Source of the values: ChEMBL document CHEMBL1201862, “PubChem BioAssay data set” (2004).
